Measurements reported in patent publication US20210070748A1, “INHIBITORS OF BRUTONS TYROSINE KINASE” (Pharmacyclics LLC, priority 2015, published 2021).

How the values were obtained:
JAK3 = biological target: T1, JAK3 (Homo sapiens, UniProt P52333); assay: Inhibition of a panel of kinases, in vitro HotSpot kinase assay: JAK3; type: biochemical; details: D-compounds panel data; 1 μM ATP; read-out: IC50 JAK3
T1 sequence (P52333 1-1124): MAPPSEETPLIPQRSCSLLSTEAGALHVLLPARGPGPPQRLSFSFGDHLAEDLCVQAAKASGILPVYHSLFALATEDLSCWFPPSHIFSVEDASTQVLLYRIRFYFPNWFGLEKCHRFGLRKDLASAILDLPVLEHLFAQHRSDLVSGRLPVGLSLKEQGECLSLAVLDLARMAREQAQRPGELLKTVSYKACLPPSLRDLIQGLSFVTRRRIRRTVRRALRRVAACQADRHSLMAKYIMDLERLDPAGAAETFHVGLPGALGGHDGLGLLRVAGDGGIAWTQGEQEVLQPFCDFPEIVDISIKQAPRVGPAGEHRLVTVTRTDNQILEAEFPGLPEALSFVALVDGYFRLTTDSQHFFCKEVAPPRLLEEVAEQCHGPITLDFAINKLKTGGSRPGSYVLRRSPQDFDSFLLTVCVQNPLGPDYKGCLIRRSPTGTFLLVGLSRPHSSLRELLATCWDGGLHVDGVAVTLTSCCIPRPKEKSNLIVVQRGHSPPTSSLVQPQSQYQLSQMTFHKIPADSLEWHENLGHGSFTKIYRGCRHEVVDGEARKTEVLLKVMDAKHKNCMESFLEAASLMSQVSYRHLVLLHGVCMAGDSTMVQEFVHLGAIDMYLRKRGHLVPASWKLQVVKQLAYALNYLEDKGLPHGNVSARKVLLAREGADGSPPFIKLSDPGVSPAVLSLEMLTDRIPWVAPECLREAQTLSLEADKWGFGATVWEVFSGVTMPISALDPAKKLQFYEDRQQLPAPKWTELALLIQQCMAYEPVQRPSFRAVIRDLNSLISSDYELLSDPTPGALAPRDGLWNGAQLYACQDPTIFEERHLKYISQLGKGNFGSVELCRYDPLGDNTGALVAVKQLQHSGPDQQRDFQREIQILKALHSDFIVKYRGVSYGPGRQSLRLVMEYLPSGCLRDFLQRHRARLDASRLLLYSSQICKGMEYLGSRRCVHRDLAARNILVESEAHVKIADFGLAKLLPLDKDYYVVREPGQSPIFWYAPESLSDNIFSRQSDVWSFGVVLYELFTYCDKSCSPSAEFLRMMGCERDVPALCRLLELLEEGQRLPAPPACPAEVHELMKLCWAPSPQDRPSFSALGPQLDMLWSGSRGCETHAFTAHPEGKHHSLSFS

ITK = biological target: T2, ITK (Homo sapiens, UniProt Q08881); assay: Inhibition of a panel of kinases, in vitro HotSpot kinase assay: ITK; type: biochemical; details: D-compounds panel data; 1 μM ATP
T2 sequence (Q08881 1-620): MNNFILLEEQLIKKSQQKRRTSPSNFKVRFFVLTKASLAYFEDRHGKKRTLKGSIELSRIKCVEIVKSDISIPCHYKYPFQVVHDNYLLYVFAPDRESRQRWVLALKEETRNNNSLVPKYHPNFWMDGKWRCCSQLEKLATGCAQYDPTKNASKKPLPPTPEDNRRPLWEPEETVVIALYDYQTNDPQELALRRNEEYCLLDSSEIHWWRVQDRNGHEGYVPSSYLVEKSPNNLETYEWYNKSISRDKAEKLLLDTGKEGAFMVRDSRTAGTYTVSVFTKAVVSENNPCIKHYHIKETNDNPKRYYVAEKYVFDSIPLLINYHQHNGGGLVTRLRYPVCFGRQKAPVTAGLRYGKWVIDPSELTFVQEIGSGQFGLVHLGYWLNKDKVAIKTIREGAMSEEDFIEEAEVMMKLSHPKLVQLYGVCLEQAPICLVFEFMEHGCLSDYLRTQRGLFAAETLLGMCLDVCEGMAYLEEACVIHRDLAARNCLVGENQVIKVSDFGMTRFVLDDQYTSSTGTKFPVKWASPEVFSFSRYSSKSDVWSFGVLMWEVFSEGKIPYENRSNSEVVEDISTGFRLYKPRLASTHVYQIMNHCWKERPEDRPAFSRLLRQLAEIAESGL
Experimental: The degree of inhibition of a panel of kinases is determined using the in vitro HotSpot kinase assay (purified enzymes, ^33P-ATP, an appropriate substrate and 1 μM ATP).

C[C@@H]1[C@H](NC(=O)c2ccc(C3CC3)cc2)CCCN1c1cnc(C(N)=O)c(Nc2ccc(N3CCN(C)CC3)cc2)n1 [Example D-81]
IC50 (JAK3): 1 to 10 µM
IC50 (ITK): 0.1 to 1 µM

C[C@@H]1[C@H](NC(=O)c2ccc(C3CC3)cc2F)CCCN1c1cnc(C(N)=O)c(Nc2ccc(N3CCN(C)CC3)c(F)c2)n1 [Example D-82, 5-[(2R,3R)-3-(4-cyclopropyl-2-fluorobenzamido)-2-methylpiperidin-1-yl]-3-{[3-fluoro-4-(4-methylpiperazin-1-yl)phenyl]amino}pyrazine-2-carboxamide]
IC50 (JAK3): 1 to 10 µM
IC50 (ITK): 0.1 to 1 µM

C[C@@H]1[C@H](NC(=O)c2ccc(C3CC3)cc2)CCCN1c1cnc(C(N)=O)c(Nc2ccc3nccn3c2)n1 [Example D-83, 5-[(2R,3R)-3-(4-cyclopropylbenzamido)-2-methylpiperidin-1-yl]-3-({imidazo[1,2-a]pyridin-6-yl}amino)pyrazine-2-carboxamide]
IC50 (JAK3): 1 to 10 µM
IC50 (ITK): 1 to 10 µM

C[C@@H]1[C@H](NC(=O)c2ccc(N(C)C)cn2)CCCN1c1cnc(C(N)=O)c(Nc2cnn(C)c2)n1 [Example D-84, 5-[(2R,3R)-3-[5-(dimethylamino)pyridine-2-amido]-2-methylpiperidin-1-yl]-3-[(1-methyl-1H-pyrazol-4-yl)amino]pyrazine-2-carboxamide]
IC50 (JAK3): > 10 µM
IC50 (ITK): 0.1 to 1 µM

C[C@@H]1[C@H](NC(=O)c2ccc(-c3ncccn3)cc2)CCCN1c1cnc(C(N)=O)c(Nc2cnn(C)c2)n1 [Example D-85, 3-[(1-methyl-1H-pyrazol-4-yl)amino]-5-[(2R,3R)-2-methyl-3-[4-(pyrimidin-2-yl)benzamido]piperidin-1-yl]pyrazine-2-carboxamide]
IC50 (JAK3): 0.1 to 1 µM
IC50 (ITK): 0.1 to 1 µM

C[C@@H]1[C@H](NC(=O)c2cnc(C3CC3)nc2)CCCN1c1cnc(C(N)=O)c(Nc2cnn(C)c2)n1 [Example D-86, 5-[(2R,3R)-3-(2-cyclopropylpyrimidine-5-amido)-2-methylpiperidin-1-yl]-3-[(1-methyl-1H-pyrazol-4-yl)amino]pyrazine-2-carboxamide]
IC50 (JAK3): 0.1 to 1 µM
IC50 (ITK): 0.01 to 0.1 µM

C[C@@H]1[C@H](NC(=O)c2ccc(C(F)(F)F)cn2)CCCN1c1cnc(C(N)=O)c(Nc2cnn(C)c2)n1 [Example D-87, 3-[(1-methyl-1H-pyrazol-4-yl)amino]-5-[(2R,3R)-2-methyl-3-[5-(trifluoromethyl)pyridine-2-amido]piperidin-1-yl]pyrazine-2-carboxamide]
IC50 (JAK3): 0.1 to 1 µM
IC50 (ITK): 0.1 to 1 µM

C[C@@H]1[C@H](NC(=O)c2ccc(C(C)(C)C#N)cc2)CCCN1c1cnc(C(N)=O)c(Nc2cnn(C)c2)n1 [Example D-88, 5-[(2R,3R)-3-[4-(1-cyano-1-methylethyl)benzamido]-2-methylpiperidin-1-yl]-3-[(1-methyl-1H-pyrazol-4-yl)amino]pyrazine-2-carboxamide]
IC50 (JAK3): 1 to 10 µM
IC50 (ITK): 0.1 to 1 µM

C[C@@H]1[C@H](NC(=O)c2ccc(C3CC3)cc2)CCCN1c1cnc(C(N)=O)c(Nc2ccc(OC3CCN(C)CC3)cc2)n1 [Example D-89]
IC50 (JAK3): 0.1 to 1 µM
IC50 (ITK): 0.1 to 1 µM

C[C@@H]1[C@H](NC(=O)C23CC(C2)C3)CCCN1c1cnc(C(N)=O)c(Nc2cnn(C)c2)n1 [Example D-90, 5-[(2R,3R)-3-{bicyclo[1.1.1]pentane-1-amido}-2-methylpiperidin-1-yl]-3-[(1-methyl-1H-pyrazol-4-yl)amino]pyrazine-2-carboxamide]
IC50 (JAK3): 1 to 10 µM
IC50 (ITK): 0.1 to 1 µM

C[C@@H]1[C@H](NC(=O)c2ccc(C(F)(F)F)nc2)CCCN1c1cnc(C(N)=O)c(Nc2cnn(C)c2)n1 [Example D-91, 3-[(1-methyl-1H-pyrazol-4-yl)amino]-5-[(2R,3R)-2-methyl-3-[6-(trifluoromethyl)pyridine-3-amido]piperidin-1-yl]pyrazine-2-carboxamide]
IC50 (JAK3): 0.1 to 1 µM
IC50 (ITK): 0.1 to 1 µM

C[C@@H]1[C@H](NC(=O)c2ccc(C3CC3)cc2)CCCN1c1cnc(C(N)=O)c(Nc2ccc(N3CCN(C)CC3)c(C(F)(F)F)c2)n1 [Example D-92, 5-[(2R,3R)-3-(4-cyclopropylbenzamido)-2-methylpiperidin-1-yl]-3-{[4-(4-methylpiperazin-1-yl)-3-(trifluoromethyl)phenyl]amino}pyrazine-2-carboxamide]
IC50 (JAK3): > 10 µM
IC50 (ITK): 1 to 10 µM

C[C@@H]1[C@H](N2CCN(C)C2=O)CCCN1c1cnc(C(N)=O)c(Nc2cnn(C)c2)n1 [Example D-93, 3-[(1-methyl-1H-pyrazol-4-yl)amino]-5-[(2R,3R)-2-methyl-3-(3-methyl-2-oxoimidazolidin-1-yl)piperidin-1-yl]pyrazine-2-carboxamide]
IC50 (JAK3): 0.1 to 1 µM
IC50 (ITK): 0.1 to 1 µM

C[C@@H]1[C@H](NC(=O)c2ccc(C(C)(C)CO)cc2)CCCN1c1cnc(C(N)=O)c(Nc2cnn(C)c2)n1 [Example D-94, 5-[(2R,3R)-3-[4-(1-hydroxy-2-methylpropan-2-yl)benzamido]-2-methylpiperidin-1-yl]-3-[(1-methyl-1H-pyrazol-4-yl)amino]pyrazine-2-carboxamide]
IC50 (JAK3): 0.1 to 1 µM
IC50 (ITK): 0.1 to 1 µM

C[C@@H]1[C@H](NC(=O)c2ccc(C3CC3)cc2)CCCN1c1cnc(C(N)=O)c(Nc2ccc(CN3CCOCC3)cc2)n1 [Example D-316, 5-[(2R,3R)-3-(4-cyclopropylbenzamido)-2-methylpiperidin-1-yl]-3-{[4-(morpholin-4-ylmethyl)phenyl]amino}pyrazine-2-carboxamide]
IC50 (JAK3): 1 to 10 µM
IC50 (ITK): 0.1 to 1 µM

C[C@@H]1[C@H](NC(=O)c2ccc(C3CC3)cc2)CCCN1c1cnc(C(N)=O)c(Nc2ccc(C3CCOCC3)cc2)n1 [Example D-317, 5-[(2R,3R)-3-(4-cyclopropylbenzamido)-2-methylpiperidin-1-yl]-3-{[4-(oxan-4-yl)phenyl]amino}pyrazine-2-carboxamide]
IC50 (JAK3): 1 to 10 µM
IC50 (ITK): > 10 µM

C[C@@H]1[C@H](NC(=O)c2ccc(C3CC3)cc2)CCCN1c1cnc(C(N)=O)c(Nc2cnc(N3CCN(C)CC3)nc2)n1 [Example D-318, 5-[(2R,3R)-3-(4-cyclopropylbenzamido)-2-methylpiperidin-1-yl]-3-{[2-(4-methylpiperazin-1-yl)pyrimidin-5-yl]amino}pyrazine-2-carboxamide]
IC50 (JAK3): > 10 µM
IC50 (ITK): 0.1 to 1 µM

C[C@@H]1[C@H](NC(=O)c2ccc(C3CC3)cc2)CCCN1c1cnc(C(N)=O)c(Nc2cnn(CC3CCOCC3)c2)n1 [Example D-319, 5-[(2R,3R)-3-(4-cyclopropylbenzamido)-2-methylpiperidin-1-yl]-3-{[1-(oxan-4-ylmethyl)-1H-pyrazol-4-yl]amino}pyrazine-2-carboxamide]
IC50 (JAK3): > 10 µM
IC50 (ITK): 0.1 to 1 µM

C[C@@H]1[C@H](NC(=O)c2ccc(C3CC3)cc2)CCCN1c1cnc(C(N)=O)c(Nc2ccc(N3CCC(C(=O)N(C)C)CC3)cc2)n1 [Example D-320, 5-[(2R,3R)-3-(4-cyclopropylbenzamido)-2-methylpiperidin-1-yl]-3-({4-[4-(dimethylcarbamoyl)piperidin-1-yl]phenyl}amino)pyrazine-2-carboxamide]
IC50 (JAK3): 1 to 10 µM
IC50 (ITK): 0.01 to 0.1 µM

C[C@@H]1[C@H](NC(=O)c2ccc(C3CC3)cc2)CCCN1c1cnc(C(N)=O)c(Nc2cnn(CC3CCC(F)(F)CC3)c2)n1 [Example D-321, 5-[(2R,3R)-3-(4-cyclopropylbenzamido)-2-methylpiperidin-1-yl]-3-({1-[(4,4-difluorocyclohexyl)methyl]-1H-pyrazol-4-yl}amino)pyrazine-2-carboxamide]
IC50 (JAK3): > 10 µM
IC50 (ITK): 0.1 to 1 µM
